The source of these data is US20080146555A1, “Uses of Kinase Inhibitors and Compositions Thereof” (GPC Biotech, Inc, priority 2004, published 2008).

pIC50: −log10 of the molar value.

Assay [1] has as its system HCT-116 cells. As to the kind of experiment: Calcein AM viability assay, HCT-116. In kind it is cell-based. Conditions: Homo sapiens. On the procedure: (§1) The potency of the subject kinase inhibitors, as measured by loss of cellular viability, was determined with the Calcein AM assay (Molecular Probes). Calcein AM is a substrate of intracellular esterases, which is cleaved only in viable cells to generate a fluorescent product that can be quantified with a fluorescent plate reader. The fluorescent signal is proportional to the number of viable cells, and thus loss of signal in response to the exposure of cells to the subject kinase inhibitors correlates with a loss of viability. This assay not only distinguishes cell cycle arrest, in which cells may still by viable, from loss of viability, and is thus well suited for the evaluation of the subject kinase inhibitors. A compound that is a potent cytotoxic agent may cause significant loss of cell viability in such an assay.
(§2) Cellular IC50's were determined in the human colorectal carcinoma cell line, HCT-116, and the normal human fibroblast, IMR90. Protein adjusted IC50's were also determined in HCT-116. Results of such viability assays are presented in Table 2 (HCT-116 (viability/protein adjusted) and IMR-90). IC50's (μM, non-protein adjusted) for the viability assay against HCT-116 cells are shown for further compounds of the invention in Table 4.
(§3) HCT-116 or IMR90 cells were recovered from sub-confluent plates by trypsinization and 1,000 or 4,000 cells, respectively, were plated in 24-well dishes and incubated overnight at 37° C., 5% CO2. HCT-116 cells were cultured in RPMI-1640, 10% FCS, and IMR90 cells were cultured in Minimum Essential Medium-alpha, 10% FCS. After overnight incubation to allow adherence, the media was aspirated from each well and replaced with media containing a test compound at a concentration from 0 to 250 nM, spanning a total of 7 doses. The plates were returned to the incubator and cultured for an additional 72 hours (3 days). […] After 72-hours incubation with the test compound, the cells were washed twice with 1×PBS, taking special care to remove all residual buffer.
(§4) A 5 μM Calcein AM solution was prepared by dissolving a 50 μg aliquot of Calcein (Molecular Probes catalog #C3100) in 50 μl DMSO. After the Calcein had completely dissolved (10 minutes at room temperature), it was diluted into 10 ml PBS. Calcein/PBS (0.5 ml) was added to each well. The plates were incubated for 75 minutes at 37° C. (protected from light) and the fluorescent signal was read on a fluorescent plate reader (excitation 485/20 and emission 530/25).

In assay [2] the test system is normal human fibroblast, IMR90. Briefly: Calcein AM viability assay, IMR90. The class given is cell-based. Conditions: IMR-90, Calcein AM, 72 h. On the procedure:
as §1, §2, §3, §4

The subject of assay [3] is HCT-116 cells. Briefly: Clonogenic survival assay with HCT-116 cells. Conditions: Homo sapiens. The class given is cell-based. On the procedure:
This assay was used to determine the concentration of a compound that results in irreversible loss of viability after a specified period of exposure. Essentially, cells are exposed to compound for a period of […], and are then transferred to compound-free growth medium. After continued incubation in the compound-free medium for a number of days, the number of colonies recovered is counted as an estimate of the number of surviving cells.
Media (RPMI-1640, 10% FCS, pen/strep) was pre-warmed to 37° C. in a water bath. Cells were incubated and grown at 37° C., 5% CO2. Cells were recovered by trypsinization from sub-confluent plates and counted using a hemocytometer. 1×10^4 cells were plated in 25 mls of media in a 15 cm tissue culture dish. […] were set up for each test compound, and were incubated overnight at 37° C. The compound was diluted into media at 7 concentrations and the media on the cells was replaced with that containing the test compound. Two plates were set up for each concentration of the compound to be tested, as well as two control plates without compound. Plates were incubated as above for […], media was removed and replaced with fresh media, and the plates were incubated an additional 7 days and washed with PBS. Colonies were stained with crystal violet solution (0.4% crystal violet, 20% ethanol) for 5 minutes, washed twice with distilled water, and counted.

The test system of assay [4] is adriamycin resistant cell line (ADR-res). As to the kind of experiment: NCI panel, adriamycin resistant cell line, SRB assay. The class given is cell-based. Conditions: Homo sapiens, 48 h. The source says:
(§5) The evaluation of compounds at the National Cancer Institute in their panel of 60 cell lines provides a wealth of information regarding efficacy in a wide range of tumor types and genetic backgrounds. Included within this panel are cell lines derived from leukemia, melanoma and cancers of the lung, colon, brain, ovary, breast, prostate and kidney. Use of this panel provides a measure of the efficacy of compounds in cells with alterations in many genes that are associated with neoplastic transformation including p53 and Her2/Neu as well as those involved in metabolism and those which confer multi-drug resistance. The data generated in these cell lines with the protocol described below can be used to evaluate the activity of compounds.
(§6) Cells were grown in RPMI-1640 10% FCS and plated in 96 well micro-titer plates at densities ranging from 5,000 to 40,000 cells/well. The plates were incubated for 24 hours at 37° C., 5% CO2 for 24 hours. Media containing twice the desired final concentration of the compound (5 doses spanning 4 logs) was prepared and 100 μl was added to each well containing 100 μl media plus cells to yield the desired final concentration. The plates were then incubated for an additional 48 hours.
(§7) The effect of the compound on cellular viability was determined with the Sulforhodamine B (SRB) assay, which measures total protein. Cells were fixed with cold TCA to a final concentration of 10% and incubated at 4° C. for 60 minutes. The supernatant was discarded and the plates were washed five times with water and air-dried. SRB solution at […] in 1% acetic acid was added to each well and the plates were incubated for 10 minutes at room temperature. The plates were washed five times with 1% acetic acid and air-dried. The bound stain was solubilized with 10 mM trizma base and the absorbance was read on a plate reader at […].
In general terms: In SRB staining, fixed cells bind dye roughly in proportion to their protein.

Assay [5] relates to NCI panel of 60 cell lines. As to the kind of experiment: cells. The conditions noted are these: Homo sapiens, 60 cell, 48 h, read-out: NCI panel MG-MID (Mean-Graph Mid-point, average IC50 over panel), 48 h, SRB; IC50 <10 nM counted as 10 nM.
Source text: as §5, §6, §7

The mark [6] stands for this setting: HCT-116, 72 h, Calcein AM, 72 h, read-out: HCT-116 IC50 Viability.
Where [7] appears, read: HCT-116, plus 1 mg/ml alpha acidic glycoprotein and 45 mg/ml human serum albumin, read-out: HCT-116 IC50 Protein adjusted.
[8] abbreviates: 24 h exposure, read-out: HCT-116 IC50 Clonogenic 24 h.
The mark [9] stands for this setting: 48 h exposure, read-out: HCT-116 IC50 Clonogenic 48 h.
The mark [10] stands for this setting: HCT-116, non-protein adjusted, Table 4, read-out: HCT-116 viability IC50.

With `CN1CCN(NC(=O)Nc2cccc3c2C(=O)c2c-3n[nH]c2-c2ccc(OCCN(CCO)CCO)cc2)CC1` [N], the pIC50 in assay [1] (setting [6]) was > 6.00; in assay [1] (setting [7]), > 6.00; in assay [2], < 7.00.

With `CN1CCN(NC(=O)Nc2cccc3c2C(=O)c2c-3n[nH]c2-c2ccc(OCCN3CCOCC3)cc2)CC1` [Q], the pIC50 is > 7.00 in assay [3] (setting [8]); > 7.00 in assay [3] (72 h exposure, read-out: HCT-116 IC50 Clonogenic 72 h); > 5.00 in assay [4]; > 7.00 in assay [5]; > 7.00 in assay [1] (setting [6]); > 6.00 in assay [1] (setting [7]). The pIC50 in assay [2] is > 7.00.

Regarding `CC(C)N1CCN(Cc2cc(-c3[nH]nc4c3C(=O)c3c(NC(=O)NN5CCOCC5)cccc3-4)ccc2O)CC1` [K], the pIC50 in assay [3] (setting [8]) is > 6.00; in assay [4] it was > 5.00; in assay [5] it was > 7.00; in assay [1] (setting [6]) it was > 7.00; in assay [1] (setting [7]), > 6.00; in assay [2] it was < 7.00.

As for `CN1CCN(NC(=O)Nc2cccc3c2C(=O)c2c-3n[nH]c2-c2ccc(OCCN3CCC[C@H]3CO)cc2)CC1` [Compound M], the pIC50 in assay [3] (setting [8]) was > 7.00; in assay [1] (setting [6]), > 7.00; in assay [1] (setting [7]), > 6.00; in assay [2], > 7.00.

On to `O=C(Nc1cccc2c1C(=O)c1c-2n[nH]c1-c1ccc(OCCN(CCO)CCO)cc1)NN1CCOCC1` [H], for which the pIC50 in assay [3] (setting [8]) is > 6.00; in assay [3] (setting [9]) it was > 7.00; in assay [4], < 5.00; in assay [5] it was > 7.00; in assay [1] (setting [6]), > 7.00; in assay [1] (setting [7]) it was > 6.00. Besides, the pIC50 in assay [2] is > 7.00.

As for `CCCN(CCOc1ccc(-c2[nH]nc3c2C(=O)c2c(NC(=O)NN4CCOCC4)cccc2-3)cc1)CC1CC1` [G], the pIC50 was > 7.00 in assay [3] (setting [8]); > 7.00 in assay [3] (setting [9]); > 6.00 in assay [4]; > 7.00 in assay [5]; > 7.00 in assay [1] (setting [6]); > 6.00 in assay [1] (setting [7]). Further, the pIC50 in assay [2] was > 7.00.

Regarding `O=C(Nc1cccc2c1C(=O)c1c-2n[nH]c1-c1ccc(OCCN2CCCC2)cc1)NN1CCOCC1` [Compound I], the pIC50 is > 7.00 in assay [3] (setting [8]); > 7.00 in assay [3] (setting [9]); > 6.00 in assay [4]; > 7.00 in assay [5]; > 7.00 in assay [1] (setting [6]); > 6.00 in assay [1] (setting [7]). The pIC50 in assay [2] was > 7.00.

Take `CN1CCN(NC(=O)Nc2cccc3c2C(=O)c2c-3n[nH]c2-c2ccc(OCCN3CC[C@H](O)C3)cc2)CC1` [O]: the pIC50 in assay [3] (setting [8]) is > 8.00; in assay [1] (setting [6]), > 7.00; in assay [1] (setting [7]), > 6.00; in assay [2], > 7.00.

As to `Cc1cc(OCCN2CCCC2)ccc1-c1[nH]nc2c1C(=O)c1c(NC(=O)NN3CCN(C)CC3)cccc1-2` [L], the pIC50 in assay [3] (setting [9]) was > 7.00; in assay [4], < 5.00; in assay [5], < 5.00; in assay [1] (setting [6]) it was > 7.00; in assay [1] (setting [7]), > 6.00; in assay [2] it was < 7.00.

Take `O=C(Nc1cccc2c1C(=O)c1c-2n[nH]c1-c1ccc(OP(=O)(O)O)cc1)NN1CCOCC1` [J]: the pIC50 in assay [1] (HCT-116, Calcein AM, 72 h, read-out: HCT-116 IC50 Viability) is > 6.00; in assay [2] it was > 7.00.

Turning to `Cc1cc(-c2[nH]nc3c2C(=O)c2c(NC(=O)NN4CCN(C)CC4)cccc2-3)ccc1OCCN1CCCC1` [P], the results for the pIC50 in assay [3] (setting [8]), in assay [1] (setting [6]) and in assay [2] were > 7.00, > 8.00 and > 7.00, respectively.

In the case of `O=C(Nc1cccc2c1C(=O)c1c-2n[nH]c1-c1ccc(OCC(=O)N2CCOCC2)cc1)NN1CCOCC1` [Compound A36], the pIC50 in assay [1] (setting [10]) is > 8.00.

As to `O=C(Nc1cccc2c1C(=O)c1c(-c3ccc(CNCCOCCO)cc3)n[nH]c1-2)NN1CCOCC1` [Compound B4], the pIC50 in assay [1] (setting [10]) is > 7.00.

For the compound `CC(C)C(N)C(=O)OCCN1CCN(NC(=O)Nc2cccc3c2C(=O)c2c-3n[nH]c2-c2ccc(OCCN3CCCC3)cc2)CC1` (stereo not shown) [Compound A33], in assay [1] (setting [10]), the pIC50 is > 7.00.

As to `Cc1cc(-c2[nH]nc3c2C(=O)c2c(NC(=O)NN4CCOCC4)cccc2-3)ccc1OCCN1CCN(C(C)C)CC1` [Compound A24], the pIC50 in assay [1] (setting [10]) was > 8.00.

Turning to `CCOC(=O)COc1ccc(-c2[nH]nc3c2C(=O)c2c(NC(=O)NN4CCOCC4)cccc2-3)cc1` [Compound A65], the pIC50 in assay [1] (setting [10]) is > 7.00.

`O=C(Nc1cccc2c1C(=O)c1c-2n[nH]c1-c1ccc(OCC(=O)N2CCCC2)cc1)NN1CCOCC1` [Compound A46]: the pIC50 in assay [1] (setting [10]) is > 7.00.

In the case of `CN1CCN(NC(=O)Nc2cccc3c2C(=O)c2c-3n[nH]c2-c2ccc(OCC(=O)N3CCCC3)cc2)CC1` [Compound A44], the pIC50 in assay [1] (setting [10]) was > 7.00.

Consider `COc1cc(-c2[nH]nc3c2C(=O)c2c(NC(=O)NN4CCOCC4)cccc2-3)ccc1OCCN1CCCC1` [Compound A31], for which the pIC50 in assay [1] (setting [10]) was > 7.00.

`COCCN1CCN(C(=O)COc2ccc(-c3[nH]nc4c3C(=O)c3c(NC(=O)NN5CCOCC5)cccc3-4)cc2)CC1` [Compound C1]: in assay [1] (setting [10]), the pIC50 was > 7.00.

For `Cc1noc(COc2ccc(-c3[nH]nc4c3C(=O)c3c(NC(=O)NN5CCOCC5)cccc3-4)cc2)n1` [Compound A35], in assay [1] (setting [10]), the pIC50 was > 7.00.

As for `O=C(Nc1cccc2c1C(=O)c1c(-c3ccc(CNCC(O)CO)cc3)n[nH]c1-2)NN1CCOCC1` (stereo not shown) [Compound B11], the pIC50 in assay [1] (setting [10]) was > 6.00.

With `O=C(Nc1cccc2c1C(=O)c1c(-c3ccc(CN4CCN(c5cccc(C(F)(F)F)c5)CC4)cc3)n[nH]c1-2)NN1CCOCC1` [Compound B7], the pIC50 in assay [1] (setting [10]) is > 6.00.

Consider `O=C(Nc1cccc2c1C(=O)c1c(-c3ccc(OCCN4CCOCC4)cc3Cl)n[nH]c1-2)NN1CCOCC1` [Compound A28], for which the pIC50 in assay [1] (setting [10]) was > 7.00.

`Cc1cc(OCCN2CCOCC2)ccc1-c1[nH]nc2c1C(=O)c1c(NC(=O)NN3CCN(C)CC3)cccc1-2` [Compound A7]: the pIC50 in assay [1] (setting [10]) is > 7.00.

As a reminder, the pIC50 is the IC50 on a negative log10 scale, so that one unit is a factor of ten.
